# Literature values as cited in US8608968B2, “Compositions for bioremediation and methods for using” (Carus Corporation, priority 2006, dated 2013).
# Conditions: dimensionless
row,SMILES,Henry's Law Constant
1,C=C [Ethene],8.76
2,C [Methane],27.2
3,ClC=C(Cl)Cl [Trichloroethene],0.48
4,C=CCl [Vinyl chloride],0.95
5,"Cl/C=C\Cl [cis-1,2-dichloroethene]",0.31
